Read-outs that look alike come from different tables or passages of the source.
Legend:
[1] = biological target: T1, human recombinant S-COMT (Homo sapiens, UniProt P21964)
T1 sequence (P21964 1-221 isoform P21964-2): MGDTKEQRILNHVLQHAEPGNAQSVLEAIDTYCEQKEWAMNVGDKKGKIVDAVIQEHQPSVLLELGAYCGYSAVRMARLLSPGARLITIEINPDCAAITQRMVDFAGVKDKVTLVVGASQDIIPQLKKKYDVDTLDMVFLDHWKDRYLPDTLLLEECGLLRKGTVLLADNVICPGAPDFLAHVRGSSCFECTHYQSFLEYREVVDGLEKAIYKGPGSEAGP

[2] = biological target: T2, liver COMT (Rattus norvegicus, UniProt P22734); assay: inhibition of liver COMT post oral administration to rats; assay type: in vivo; settings: for ED50: rat, po
T2 construct: from tissue; host or cells: rat liver
T2 sequence (P22734 1-264): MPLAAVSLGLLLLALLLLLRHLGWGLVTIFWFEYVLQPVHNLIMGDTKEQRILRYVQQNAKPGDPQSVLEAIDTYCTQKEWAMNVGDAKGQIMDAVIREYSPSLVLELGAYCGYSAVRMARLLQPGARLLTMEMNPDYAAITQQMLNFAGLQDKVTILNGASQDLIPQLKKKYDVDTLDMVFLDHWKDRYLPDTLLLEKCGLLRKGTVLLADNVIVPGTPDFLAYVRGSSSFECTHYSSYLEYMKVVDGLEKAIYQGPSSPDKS

[3] = biological target: T3, COMT in the brain (Rattus norvegicus, UniProt P22734); assay: inhibition of COMT in the brain following oral administration to the rat; assay type: in vivo; settings: over a period of 8 hours post administration
T3 construct: from tissue; host or cells: rat brain
T3 sequence (P22734 1-264): T2 sequence (P22734 1-264)

- inhibition of human recombinant S-COMT (in words) [1]: inhibit
- enzyme activity recovery (rat liver COMT) ([2]; oral administration, after 9 hours): about 84%
- ED50 ([2]; read-out: ED50 inhibiting liver COMT, rats, oral administration, at 3 hours post administration): 1.28 mg/kg
- ED50 ([2]; read-out: ED50 inhibiting liver COMT, rats, oral administration, at 6 hours post administration): 2.08 mg/kg
- enzyme activity inhibited (COMT in the brain) [3]: about 50%
SMILES: Cc1ccc(C(=O)c2cc(O)c(O)c([N+](=O)[O-])c2)cc1 [tolcapone]
